Where two headings read alike, the source gives them in different places. Blank lines part the entries; values can stand above or below the molecule they belong to.
What was measured:
[1] = system: LNcap; assay: CCK-8 tumor cell proliferation, LNcap; format: cell-based, Human; details: 96 h, read-out: IC50 for inhibiting the proliferation of tumor cells, LNcap
Procedure: (§1) Determination of half inhibitory concentration (IC50) of the compounds against tumor cells:
(§2) The tumor cells used herein were cultured in a cell culture medium listed in table 6 at 37° C. in an incubator with 5% CO2. Prior to experimentation, all cells used were correctly identified by STR profiling, and tested negative for mycoplasma through routine screenings.
(§3) IC50 values of the compounds of the present disclosure (including the compounds in Table 4 and compounds of examples 1-72) were measured using the Meilun Cell Counting Kit-S kit from Dalian Meilun Biotech Co., Ltd. Assay details are as follows: tumor cells were seeded in a 96-well plate at a density listed in Table 7. After 24 h, 100 μL of the inoculated cells were treated with 0.5 μL of the compounds of the present disclosure (including the compounds in Table 4 and compounds of examples 1-72) at 10 different successively decreasing concentrations (starting at the highest concentration of 10 μM; 5-fold serial dilutions). After the cells were treated with the compounds of the present disclosure for a period of time (the treatment times listed in Table 7), the cell viability detection reagent was added to the culture medium for cell viability assessment according to the instructions provided with the CCK-8 kit. […] The growth inhibition of the compounds of the present disclosure on cells was plotted by Prism Graphpad software, and the IC50 values of the compounds of the present disclosure were calculated therefrom.

[2] = system: WSU-DLCL2; assay: CCK-8 tumor cell proliferation, WSU-DLCL2; format: cell-based, Human; details: read-out: IC50 for inhibiting the proliferation of tumor cells, WSU-DLCL2
Procedure: as §1
(§4) The tumor cells used herein were cultured in a cell culture medium listed in table 6 at 37° C. in an incubator with 5% CO2.
(§5) After the cells were treated with the compounds of the present disclosure for a period of time (the treatment times listed in Table 7), the cell viability detection reagent was added to the culture medium for cell viability assessment according to the instructions provided with the CCK-8 kit. […] The growth inhibition of the compounds of the present disclosure on cells was plotted by Prism Graphpad software, and the IC50 values of the compounds of the present disclosure were calculated therefrom.

[3] = system: DU-145; assay: CCK-8 tumor cell proliferation, DU-145; format: cell-based, Human; details: DU-145, 96 h, read-out: IC50 for inhibiting the proliferation of tumor cells, DU-145
Procedure: as §1, §4, §5

[4] = system: MGC80-3; assay: CCK-8 tumor cell proliferation, MGC80-3; format: cell-based, Human; details: read-out: IC50 for inhibiting the proliferation of tumor cells, MGC80-3
Procedure: as §1, §2, §3

[5] = system: PC-3; assay: CCK-8 tumor cell proliferation, PC-3; format: cell-based, Human; details: PC-3, 96 h, read-out: IC50 for inhibiting the proliferation of tumor cells, PC-3
Procedure: as §1, §4, §5

[6] = target: human Cereblon WT GST-tagged protein (Homo sapiens (Human), UniProt Q96SW2); assay: CRBN binding, HTRF (CEREBLON BINDING kit)
human Cereblon WT GST-tagged protein, sequence (Q96SW2 whole entry): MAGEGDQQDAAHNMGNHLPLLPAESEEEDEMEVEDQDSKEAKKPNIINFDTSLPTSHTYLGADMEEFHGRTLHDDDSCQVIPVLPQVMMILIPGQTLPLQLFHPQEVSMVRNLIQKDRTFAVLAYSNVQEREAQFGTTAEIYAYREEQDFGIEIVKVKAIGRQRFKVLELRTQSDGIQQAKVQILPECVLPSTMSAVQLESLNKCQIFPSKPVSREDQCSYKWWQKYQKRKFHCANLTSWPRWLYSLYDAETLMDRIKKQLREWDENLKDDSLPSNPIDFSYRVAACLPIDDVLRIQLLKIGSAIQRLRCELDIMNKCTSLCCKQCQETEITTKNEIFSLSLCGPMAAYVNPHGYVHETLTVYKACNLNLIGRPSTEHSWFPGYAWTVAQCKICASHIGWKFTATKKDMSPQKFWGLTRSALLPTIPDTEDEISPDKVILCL
Procedure: Determination of CRBN-Binding Affinity of Compounds
The CEREBLON BINDING kits (specification: 10,000 tests; product number: Catalog #64BDCRBNPEH; CISBIO company) was used to determine the CRBN binding ability of the compounds to be tested through a HTRF method (homogeneous time-resolved fluorescence). The specific methods are as follows: • 1. […] Then, 2.5 μL of (human Cereblon WT GST-tagged protein) solution was added to each well. Finally, 5 μL of the uniformly mixed thalidomide-Red reagent and GST Eu antibody working solution were added to each of the above wells. […] The blank control wells were sequentially added with 2.5 μL of diluent #9 (1×) solution, 2.5 μL of ligand binding buffer, and 5 μL of uniformly mixed thalidomide-Red reagent and GST Eu antibody working solution. • 4. […] The corresponding CRBN binding inhibition rate was calculated using the following method: […]

[7] = system: Kasumi-1; assay: CCK-8 tumor cell proliferation, Kasumi-1; format: cell-based; details: Homo sapiens, Kasumi-1, 72 h, read-out: IC50 for inhibiting the proliferation of tumor cells, Kasumi-1
Procedure: as §1, §4, §5

[8] = system: SU-DHL-6; assay: CCK-8 tumor cell proliferation, SU-DHL-6; format: cell-based; details: Homo sapiens, SU-DHL-6, 72 h, read-out: IC50 for inhibiting the proliferation of tumor cells, SU-DHL-6
Procedure: as §1, §4, §5

[9] = system: Hep3B2.1-7; assay: CCK-8 tumor cell proliferation, Hep3B2.1-7; format: cell-based, Human; details: Homo sapiens, Hep3B2.1-7, 96 h, read-out: IC50 for inhibiting the proliferation of tumor cells, Hep3B2.1-7
Procedure: as §1, §2, §3

[10] = Homo sapiens, WSUDLCL2, WSU-DLCL2, 96 h
[11] = Homo sapiens, MGC-803, MGC80-3, 96 h

Structure (SMILES): N#Cc1ccc(OC2CCC(NC(=O)c3ccc(N4CCC(CN5CC6CC(C5)N6c5ccc6c(c5)C(=O)N(C5CCC(=O)NC5=O)C6=O)CC4)nn3)CC2)cc1Cl (stereo not shown) [GT-03339, N-((1r,4r)-4-(3-chloro-4-cyanophenoxy)cyclohexyl)-6-(4-((6-(2-(2,6-dioxopiperidin-3-yl)-1,3-dioxoisoindolin-5-yl)-3,6-diazabicyclo[3.1.1]heptan-3-yl)methyl)piperidin-1-yl)pyridazine-3-carboxamide]
IC50 [1]: 100 to 500 nM | IC50 ([2]; WSU-DLCL2, 96 h): 100 to 500 nM | IC50 [3]: 100 to 500 nM | IC50 ([4]; MGC80-3, 96 h): 50 to 100 nM | IC50 [5]: 100 to 500 nM

Structure (SMILES): O=C1CCC(N2C(=O)c3ccc(N4C5CCC4CNC5)cc3C2=O)C(=O)N1 (stereo not shown) [GT-03210, 5-(3,8-diazabicyclo[3.2.1]octan-8-yl)-2-(2,6-dioxopiperidin-3-yl)isoindoline-1,3-dione]
IC50 [6]: 2690 nM

Structure (SMILES): Cc1nc(Nc2ncc(C(=O)Nc3c(C)cccc3Cl)s2)cc(N2CCC(CN3CC4CCC(C3)N4c3cc4c(cc3F)C(=O)N(C3CCC(=O)NC3=O)C4=O)CC2)n1 (stereo not shown) [GT-03627, N-(2-chloro-6-methylphenyl)-2-((6-(4-((8-(2-(2,6-dioxopiperidin-3-yl)-6-fluoro-1,3-dioxoisoindolin-5-yl)-3,8-diazabicyclo[3.2.1]octan-3-yl)methyl)piperidin-1-yl)-2-methylpyrimidin-4-yl)amino)thiazole-5-carboxamide]
IC50 [7]: 100 to 500 nM | IC50 [8]: 100 to 500 nM

Structure (SMILES): O=C1CCC(N2C(=O)c3ccc(N4CC5CCC(C4)N5)cc3C2=O)C(=O)N1 (stereo not shown) [GT-03077, 5-(3,8-diazabicyclo[3.2.1]octan-3-yl)-2-(2,6-dioxopiperidin-3-yl)isoindoline-1,3-dione]
IC50 [6]: 5200 nM

IC50 [6]: 650 nM
Structure (SMILES): O=C1CCC(N2C(=O)c3ccc(N4CC5CCC4CN5)cc3C2=O)C(=O)N1 (stereo not shown) [GT-03076, 5-(2,5-diazabicyclo[2.2.2]octan-2-yl)-2-(2,6-dioxopiperidin-3-yl)isoindoline-1,3-dione]

Structure (SMILES): CC1(C)[C@H](NC(=O)c2ccc(N3CCC(CN4CC5CC(C4)N5c4ccc5c(c4)C(=O)N(C4CCC(=O)NC4=O)C5=O)CC3)nn2)C(C)(C)[C@H]1Oc1ccc(C#N)c(Cl)c1 (stereo partly shown) [GT-03400, N-((1r,3r)-3-(3-chloro-4-cyanophenoxy)-2,2,4,4-tetramethylcyclobutyl)-6-(4-((6-(2-(2,6-dioxopiperidin-3-yl)-1,3-dioxoisoindolin-5-yl)-3,6-diazabicyclo[3.1.1]heptan-3-yl)methyl)piperidin-1-yl)pyridazine-3-carboxamide]
IC50 ([1]; Homo sapiens): 100 to 500 nM | IC50 [2, 10]: 500 to 1000 nM | IC50 ([3]; Homo sapiens): 100 to 500 nM | IC50 [4, 11]: 100 to 500 nM | IC50 ([5]; Homo sapiens): 100 to 500 nM

Structure (SMILES): Cc1nc(Nc2ncc(C(=O)Nc3c(C)cccc3Cl)s2)cc(N2CCC(CN3CC4CC(C3)N4c3cc4c(cc3F)C(=O)N(C3CCC(=O)NC3=O)C4=O)CC2)n1 (stereo not shown) [GT-03628, N-(2-chloro-6-methylphenyl)-2-((6-(4-((6-(2-(2,6-dioxopiperidin-3-yl)-6-fluoro-1,3-dioxoisoindolin-5-yl)-3,6-diazabicyclo[3.1.1]heptan-3-yl)methyl)piperidin-1-yl)-2-methylpyrimidin-4-yl)amino)thiazole-5-carboxamide]
IC50 [7]: 100 to 500 nM

Structure (SMILES): O=C1CCC(N2C(=O)c3ccc(N4C5CNCC4C5)cc3C2=O)C(=O)N1 (stereo not shown) [GT-03100, 5-(3,6-diazabicyclo[3.1.1]heptan-6-yl)-2-(2,6-dioxopiperidin-3-yl)isoindoline-1,3-dione]
IC50 [6]: 9800 nM

Structure (SMILES): O=C1CCC(N2C(=O)c3cc(F)c(N4C5CCC4CNC5)cc3C2=O)C(=O)N1 (stereo not shown) [GT-03211, 5-(3,8-diazabicyclo[3.2.1]octan-8-yl)-2-(2,6-dioxopiperidin-3-yl)-6-fluoroisoindoline-1,3-dione]
IC50 [6]: 9800 nM

Structure (SMILES): O=C1CCC(N2C(=O)c3ccc(N4CC5CC(C4)N5)cc3C2=O)C(=O)N1 (stereo not shown) [GT-03075, 5-(3,6-diazabicyclo[3.1.1]heptan-3-yl)-2-(2,6-dioxopiperidin-3-yl)isoindoline-1,3-dione]
IC50 [6]: 5090 nM

Structure (SMILES): CC1(C)[C@H](NC(=O)c2ccc(N3CCC(CN4C5CCC4CN(c4ccc6c(c4)C(=O)N(C4CCC(=O)NC4=O)C6=O)C5)CC3)nn2)C(C)(C)[C@H]1Oc1ccc(C#N)c(Cl)c1 (stereo partly shown) [GT-03399, N-((1r,3r)-3-(3-chloro-4-cyanophenoxy)-2,2,4,4-tetramethylcyclobutyl)-6-(4-((3-(2-(2,6-dioxopiperidin-3-yl)-1,3-dioxoisoindolin-5-yl)-3,8-diazabicyclo[3.2.1]octan-8-yl)methyl)piperidin-1-yl)pyridazine-3-carboxamide]
IC50 ([1]; Homo sapiens): 100 to 500 nM | IC50 [2, 10]: 500 to 1000 nM | IC50 ([3]; Homo sapiens): 100 to 500 nM | IC50 ([5]; Homo sapiens): 100 to 500 nM | IC50 [9]: 100 to 500 nM

Structure (SMILES): CC1(C)[C@H](NC(=O)c2ccc(N3CCC(CN4C5CC4CN(c4ccc6c(c4)C(=O)N(C4CCC(=O)NC4=O)C6=O)C5)CC3)nn2)C(C)(C)[C@H]1Oc1ccc(C#N)c(Cl)c1 (stereo partly shown) [GT-03401, N-((1r,3r)-3-(3-chloro-4-cyanophenoxy)-2,2,4,4-tetramethylcyclobutyl)-6-(4-((3-(2-(2,6-dioxopiperidin-3-yl)-1,3-dioxoisoindolin-5-yl)-3,6-diazabicyclo[3.1.1]heptan-6-yl)methyl)piperidin-1-yl)pyridazine-3-carboxamide]
IC50 ([1]; Homo sapiens): 500 to 1000 nM | IC50 [2, 10]: 1000 to 5000 nM | IC50 ([3]; Homo sapiens): 500 to 1000 nM | IC50 [4, 11]: 100 to 500 nM | IC50 ([5]; Homo sapiens): 100 to 500 nM

Structure (SMILES): [2H]C1([2H])NC([2H])([2H])C([2H])([2H])N(c2cc3c(cc2F)C(=O)N(C2CCC(=O)NC2=O)C3=O)C1([2H])[2H] (stereo not shown) [GT-03108, 2-(2,6-dioxopiperidin-3-yl)-5-fluoro-6-(piperazin-1-yl-2,2,3,3,5,5,6,6-d8)isoindoline-1,3-dione]
IC50 [6]: 8750 nM

Structure (SMILES): CC1(C)[C@H](NC(=O)c2ccc(N3CCC(CN4CC5CC(C4)N5c4cc5c(cc4F)C(=O)N(C4CCC(=O)NC4=O)C5=O)CC3)nc2)C(C)(C)[C@H]1Oc1ccc(C#N)c(Cl)c1 (stereo partly shown) [GT-03403, N-((1r,3r)-3-(3-chloro-4-cyanophenoxy)-2,2,4,4-tetramethylcyclobutyl)-6-(4-((6-(2-(2,6-dioxopiperidin-3-yl)-6-fluoro-1,3-dioxoisoindolin-5-yl)-3,6-diazabicyclo[3.1.1]heptan-3-yl)methyl)piperidin-1-yl)nicotinamide]
IC50 ([1]; Homo sapiens): 500 to 1000 nM | IC50 [2, 10]: 5000 to 10000 nM | IC50 ([3]; Homo sapiens): 100 to 500 nM | IC50 [4, 11]: 500 to 1000 nM | IC50 ([5]; Homo sapiens): 100 to 500 nM

Structure (SMILES): O=C1CCC(N2C(=O)c3cc(F)c(N4C5CNCC4C5)cc3C2=O)C(=O)N1 (stereo not shown) [GT-03106, 5-(3,6-diazabicyclo[3.1.1]heptan-6-yl)-2-(2,6-dioxopiperidin-3-yl)-6-fluoroisoindoline-1,3-dione]
IC50 [6]: 4040 nM

Structure (SMILES): O=C1CCC(N2C(=O)c3cc(F)c(N4CC5CC(C4)N5)cc3C2=O)C(=O)N1 (stereo not shown) [GT-03109, 5-(3,6-diazabicyclo[3.1.1]heptan-3-yl)-2-(2,6-dioxopiperidin-3-yl)-6-fluoroisoindoline-1,3-dione]
IC50 [6]: 3550 nM

From patent publication US20250243210A1, “CRBN E3 LIGASE LIGAND COMPOUND, PROTEIN DEGRADER DEVELOPED BASED THEREON AND THEIR APPLICATIONS” (GLUETACS THERAPEUTICS (SHANGHAI) CO., LTD., priority 2021, published 2025)
